From PubChem BioAssay (NCI)
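Briefly, cells in 96-well plates were exposed to five compound concentrations for 48 h, and endpoints were estimated by linear interpolation. TGI: concentration producing complete growth inhibition.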

Experiments:
Test in all cases: NCI-60 cell line screen, 48 h
SK-MEL-2 melanoma = tested on: SK-MEL-2 melanoma
HCT-116 colon = tested on: HCT-116 colon
OVCAR-8 ovarian = tested on: OVCAR-8 ovarian
OVCAR-5 ovarian = tested on: OVCAR-5 ovarian
HT29 colon = tested on: HT29 colon
SR leukemia = tested on: SR leukemia
UO-31 renal = tested on: UO-31 renal
UACC-62 melanoma = tested on: UACC-62 melanoma
MDA-MB-435 = tested on: MDA-MB-435
LOX IMVI melanoma = tested on: LOX IMVI melanoma
DU-145 prostate = tested on: DU-145 prostate
SW-620 colon = tested on: SW-620 colon
IGROV1 ovarian = tested on: IGROV1 ovarian
SN12C renal = tested on: SN12C renal

| Compound | TGI (SK-MEL-2 melanoma) | TGI (HCT-116 colon) | TGI (OVCAR-8 ovarian) | TGI (OVCAR-5 ovarian) | TGI (HT29 colon) | TGI (SR leukemia) | TGI (UO-31 renal) | TGI (UACC-62 melanoma) | TGI (MDA-MB-435) | TGI (LOX IMVI melanoma) | TGI (DU-145 prostate) | TGI (SW-620 colon) | TGI (IGROV1 ovarian) | TGI (SN12C renal) |
| --- | --- | --- | --- | --- | --- | --- | --- | --- | --- | --- | --- | --- | --- | --- |
| COc1cc(C2SCC(=O)N2NC(=O)c2ccc(NC(C)=O)cc2OC)ccc1O (configuration not stated) | 68.6 µM | > 100 µM | 62.9 µM | 65.1 µM | > 100 µM | > 100 µM | > 100 µM | > 100 µM | > 100 µM | > 100 µM | > 100 µM | > 100 µM | > 100 µM | 79.8 µM |
| CC1OC(OC2C[C@](O)(C(=O)CBr)Cc3c(O)c4c(c(O)c32)C(=O)c2ccccc2C4=O)C(F)C(O)C1O (some centres not stated) | 79.5 µM | > 68 µM | > 100 µM | > 59.7 µM | > 56.1 µM | 3.79 µM | 8.9 µM | 34.5 µM | 31.2 µM | 35.8 µM | 63.2 µM | > 45.8 µM | 60.9 µM | > 73.3 µM |
| C=COC(=O)N1C2CCCC(Cl)(C(C)=O)C1CC2 (configuration not stated) | > 100 µM | > 100 µM | > 100 µM | > 100 µM | > 100 µM | > 100 µM | > 100 µM | > 100 µM | > 100 µM | > 100 µM | > 100 µM | > 100 µM | > 100 µM | > 100 µM |
| CC1(C)/C(=N\Nc2ccc([N+](=O)[O-])cc2[N+](=O)[O-])C2CCC1C2 (configuration not stated) | > 100 µM | > 100 µM | > 100 µM | > 100 µM | > 100 µM | > 100 µM | > 100 µM | > 100 µM | > 100 µM | > 100 µM | > 100 µM | > 100 µM | > 100 µM | > 100 µM |
| C[C@]12CC/C(=N\O)C=C1CC[C@@H]1[C@@H]2CC[C@]2(C)C(=N/O)/C(=C/c3ccncc3)C[C@@H]12 | 34.2 µM | 47.4 µM | > 100 µM | > 100 µM | 42.1 µM | 62.2 µM | 24.3 µM | 35 µM | 95.8 µM | > 100 µM | > 100 µM | > 100 µM | > 100 µM | > 100 µM |
| Cc1nn(C(=O)c2ccncc2)c2c1C(c1ccc([N+](=O)[O-])cc1)SC(N)=N2 (configuration not stated) | > 100 µM | > 100 µM | > 100 µM | > 100 µM | > 100 µM | > 100 µM | > 100 µM | > 100 µM | > 100 µM | > 100 µM | > 100 µM | > 100 µM | > 100 µM | > 100 µM |
| CSS(C)(=O)=O | 60.2 µM | > 100 µM | 68.8 µM | 49.1 µM | > 100 µM | 38.6 µM | 52.1 µM | 42.3 µM | 44.3 µM | > 100 µM | 45.9 µM | > 100 µM | 45.2 µM | 45.3 µM |
| COc1ccc2c(c1)c(=O)c1c(NCCCN(C)C)ccc3ncn2c31 | 22.1 µM | 13 µM | 9.4 µM | 25.5 µM | 8.21 µM | > 44.9 µM | 16.1 µM | 28.7 µM | 19.4 µM | 4.86 µM | 18.7 µM | 15.3 µM | 21.2 µM | 18.9 µM |
| COc1cc(OC2OC(CO)C(O)C(O)C2O)c2c(c1)O[C@@H]1[C@H](O)Oc3cc(OC)c(OC)cc3[C@]1(O)C2=O (some centres not stated) | > 25 µM | > 25 µM | > 25 µM | > 25 µM | > 25 µM | > 25 µM | > 25 µM | > 25 µM | > 25 µM | > 25 µM | > 25 µM | > 25 µM | > 25 µM | > 25 µM |
| CN(/N=C/c1ccccc1C(=O)O)C1=NCCCCN1 | > 100 µM | > 100 µM | > 100 µM | > 100 µM | > 100 µM | > 100 µM | > 100 µM | > 100 µM | > 100 µM | > 100 µM | > 100 µM | > 100 µM | > 100 µM | > 100 µM |
| Fc1cc2nc3n(c2cc1F)C(c1c(Cl)cccc1Cl)SC3 (configuration not stated) | 33.6 µM | 25.2 µM | 29.5 µM | 27.7 µM | 29.8 µM | 48.5 µM | 29.3 µM | 26.4 µM | 28.9 µM | 31.7 µM | 32.2 µM | 34 µM | 34 µM | 29.8 µM |
| Nc1nc(Cl)c(C=O)c(NCC2(CO)CCC2)n1 | 28.3 µM | 40.6 µM | 33.8 µM | > 100 µM | > 100 µM | 43.8 µM | 58.6 µM | 35.1 µM | > 100 µM | 26.9 µM | > 100 µM | > 100 µM | 25.9 µM | > 100 µM |
| C[C@H]1[C@H](C)CC[C@]2(C(=O)OC3OC(CO)C(O)C(O)C3O)CC[C@]3(C)C(=CC[C@@H]4[C@@]5(C)C[C@@H](O)[C@@H]6OC(=O)c7cc(O)c(O)c(O)c7-c7c(cc(O)c(O)c7O)C(=O)OC[C@]6(CO)[C@@H]5CC[C@]43C)[C@H]12 (some centres not stated) | > 100 µM | > 100 µM | > 100 µM | > 100 µM | > 55.8 µM | 73.3 µM | > 100 µM | > 100 µM | 32.9 µM | 25.8 µM | > 100 µM | > 63.3 µM | > 100 µM | > 100 µM |
